# Publication PMC10615877 (Chemistry (Weinheim an der Bergstrasse, Germany), 2023)
# Like-named read-outs stand apart in the source and are kept apart here.
# Assays:
# [1] = test system: thioredoxin reductase (TrxR); conditions: for inhibition: 100 µM
# MDA-MB-468 cell line = conditions: TNBC MDA-MB-468 cell line; cited from earlier work
# MDA-MB-231 = assay: Presto Blue cell viability assay, MDA-MB-231; assay type: cell-based, human; conditions: read-out: IC50 MDA-MB-231 (breast), 72 hours incubation
# T24 = assay: Presto Blue cell viability assay, T24; assay type: cell-based, human; conditions: read-out: IC50 T24 (bladder), 72 hours incubation
# IMR90 = assay: Presto Blue cell viability assay, non-cancerous lung fibroblasts IMR90; assay type: cell-based, human; conditions: read-out: IC50 IMR90 (lung fibroblasts), 72 hours incubation
# A2780 = assay: Presto Blue cell viability assay, A2780; assay type: cell-based, human; conditions: read-out: IC50 A2780 (ovarian), 72 hours incubation
# SKOV-3 = assay: Presto Blue cell viability assay, SKOV-3; assay type: cell-based, human; conditions: read-out: IC50 SKOV-3 (ovarian), 72 hours incubation
# Caki-1 = assay: Presto Blue cell viability assay, Caki-1; assay type: cell-based, human; conditions: read-out: IC50 Caki-1 (renal), 72 hours incubation
# MDA-MB-157 cells [2] = conditions: read-out: IC50 2D MDA-MB-157; cited from earlier work
# plasmid pBR322 DNA = assay: Electrophoresis mobility shift assay with plasmid DNA; conditions: no reducing agent, metal/DNAbp 0.2-1.0, 20 h, 37 °C
# [3] = test system: human umbilical vein endothelial cells (HUVEC); assay: Endothelial tube formation assay; assay type: cell-based; conditions: IC10 concentration, 16 h
# MDA-MB-231 cells [4] = conditions: MDA-MB-231 TNBC cell line, oxaliplatin treatment alone; cited from earlier work
# MDA-MB-231 cells [5] = assay: Annexin V / propidium iodide apoptosis assay by flow cytometry; assay type: cell-based, human; conditions: 72 h incubation with IC50, MDA-MB-231
# A549 = assay: Presto Blue cell viability assay, A549; assay type: cell-based, human; conditions: read-out: IC50 A549 (lung), 72 hours incubation
# MDA-MB-157 cells [6] = assay: PrestoBlue cell viability, MDA-MB-157 2D monolayer; assay type: cell-based; conditions: read-out: IC50 2D MDA-MB-157; 72 hours incubation, Presto Blue
# MDA-MB-231 cell line = assay type: cell-based, human; conditions: IC20 concentration, 24 h
Compound,"inhibition of TrxR activity ([1]; 1 μM of metal compound, 72 h, MDA-MB-231 cells) [%]",inhibition [1] [%],apoptosis (MDA-MB-468 cell line),IC50 (MDA-MB-231) [µM],IC50 (T24) [µM],IC50 (IMR90) [µM],IC50 (A2780) [µM],IC50 (SKOV-3) [µM],IC50 (Caki-1) [µM],IC50 (MDA-MB-157 cells [2]) [µM],plasmid pBR322 band mobility (metal-DNA binding) (plasmid pBR322 DNA),disruption of tube length (TL) [3] [%],disruption of tube nodes (TN) [3] [%],increase in apoptosis (MDA-MB-231 cells [4]) [%],increase of early apoptosis (MDA-MB-231 cells [5]) [%],IC50 (A549) [µM],IC50 (MDA-MB-157 cells [6]) [µM],inhibition of migration (wound-healing) (MDA-MB-231 cell line) [%]
CC(=O)OC[C@H]1O[C@@H]([S-])[C@H](OC(C)=O)[C@@H](OC(C)=O)[C@@H]1OC(C)=O.CCP(CC)CC.[Au+] [Auranofin],100,100,–,–,–,–,–,–,–,–,–,–,–,–,–,–,–,–
N.N.O=C([O-])C1(C(=O)[O-])CCC1.[Pt+2] [Carboplatin],–,–,ca. 60%,–,–,–,–,–,–,–,–,–,–,–,–,–,–,–
N.N.[Cl][Pt][Cl] [cisplatin],–,26.4,–,7.46 ± 0.62,2.86 ± 0.36,6.21 ± 0.08,1.4 ± 0.31,3.84 ± 0.39,3.21 ± 0.88,21.6,displayed bands for expected DNA-drug interactions,–,–,–,–,–,–,–
O=C1[O][Pt]2([NH][C@@H]3CCCC[C@H]3[NH]2)[O]C1=O [oxaliplatin],–,29.7,–,10.1 ± 0.89,> 100,29.8 ± 1.3,1.82 ± 0.02,42.6 ± 3.6,8.21 ± 0.07,–,displayed bands for expected DNA-drug interactions,8,14,30,30,15.8,26.6 ± 1.7,20
"N.N.[Cl-].[Cl-].[OH-].[OH-].[Pt+4] [oxo-cisplatin, [Pt(NH3)2Cl2(OH)2]]",–,66,–,52.02 ± 0.08,69.9 ± 4.9,53.5 ± 4,2.7 ± 0.4,38.6 ± 4.4,33.1 ± 2.9,–,did not change,–,–,–,–,67.8,–,–
